Measurements reported in patent US20060276537A1, “Use of ladostigil for the treatment of multiple sclerosis” (priority 2005, published 2006).

What was measured:
MAO-B = target: T1, MAO-B (Mus musculus, UniProt Q8BW75); experiment: MAO assay (14C PEA substrate) in brains of treated EAE mice; type: in vivo
T1 construct: in the brains of EAE mice; from tissue; host or cells: brain homogenate of ladostigil-treated EAE mice
T1 sequence (Q8BW75 1-520): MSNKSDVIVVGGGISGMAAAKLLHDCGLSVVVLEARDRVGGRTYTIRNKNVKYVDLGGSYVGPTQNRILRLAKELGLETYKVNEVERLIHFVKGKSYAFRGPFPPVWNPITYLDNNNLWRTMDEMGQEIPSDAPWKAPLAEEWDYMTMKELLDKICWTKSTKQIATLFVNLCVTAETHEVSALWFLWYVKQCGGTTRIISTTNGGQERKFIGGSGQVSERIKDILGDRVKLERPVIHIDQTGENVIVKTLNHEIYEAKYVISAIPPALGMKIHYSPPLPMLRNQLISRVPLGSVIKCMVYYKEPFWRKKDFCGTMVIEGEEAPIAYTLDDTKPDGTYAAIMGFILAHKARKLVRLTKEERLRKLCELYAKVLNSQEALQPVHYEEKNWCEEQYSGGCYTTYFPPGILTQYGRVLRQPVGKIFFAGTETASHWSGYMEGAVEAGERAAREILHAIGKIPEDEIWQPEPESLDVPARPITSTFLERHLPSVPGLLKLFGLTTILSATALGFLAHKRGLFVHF
Method: (§1) From the mice of Example 2, the level of MAO (MAO-A and MAO-B) inhibition was determined using ^14C-Labeled 2-phenylethylamine and 5-hydroxytryptamine as substrates.
(§2) The MAO enzyme obtained from a homogenate of rat brain in 0.3M sucrose, which was centrifuged at 600 g for 15 minutes. The supernatant is diluted appropriately in 0.05M phosphate buffer, and pre-incubated with serial dilutions of test compounds for 20 minutes at 37° C. ^14C-Labeled substrates (2-phenylethylamine, hereinafter PEA; 5-hydroxytryptamine, hereinafter 5-HT) are then added, and the incubation continued for a further 20 minutes (PEA), or 30-45 minutes (5-HT). Substrate concentrations used are 50 μM (PEA) and 1 mM (5-HT). In the case of PEA, enzyme concentration is chosen so that not more than 10% of the substrate is metabolized during the course of the reaction. Deaminated products are extracted into toluene-ethyl acetate (1:1 v/v) containing 0.6% (w/v) 2,5-diphenyloxazole (ppo) prior to determination by liquid scintillation counting. Radioactivity in the eluate indicates the production of neutral and acidic metabolites formed as a result of MAO activity. Activity of MAO in the sample is expressed as a percentage of control activity in the absence of inhibitors after subtraction of appropriate blank values. The activity determined using PEA as substrate is referred to as MAO-B, and that determined using 5-HT as MAO-A. Concentrations of inhibitor producing 50% inhibition of substrate metabolism (IC50) are calculated from the inhibition curves.

MAO-A = target: T2, MAO-A (Mus musculus, UniProt Q64133); experiment: MAO assay (14C 5-HT substrate) in brains of treated EAE mice; type: in vivo
T2 construct: in the brains of EAE mice; from tissue; host or cells: brain homogenate of ladostigil-treated EAE mice
T2 sequence (Q64133 1-526): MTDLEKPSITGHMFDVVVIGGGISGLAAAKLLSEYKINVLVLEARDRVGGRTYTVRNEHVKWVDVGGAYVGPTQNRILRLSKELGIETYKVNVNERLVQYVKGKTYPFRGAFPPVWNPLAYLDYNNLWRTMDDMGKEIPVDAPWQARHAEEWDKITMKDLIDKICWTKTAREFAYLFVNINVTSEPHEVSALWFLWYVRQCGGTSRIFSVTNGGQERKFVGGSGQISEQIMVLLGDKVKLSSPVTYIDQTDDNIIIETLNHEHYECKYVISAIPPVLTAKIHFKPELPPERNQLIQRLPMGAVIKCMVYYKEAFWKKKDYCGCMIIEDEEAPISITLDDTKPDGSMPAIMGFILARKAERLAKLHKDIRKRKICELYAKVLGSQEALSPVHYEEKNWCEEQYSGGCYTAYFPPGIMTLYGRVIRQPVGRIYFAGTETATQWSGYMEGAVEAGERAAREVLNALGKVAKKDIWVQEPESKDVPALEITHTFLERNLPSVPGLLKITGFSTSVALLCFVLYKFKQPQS
Method: as §1, §2

[1] = mouse, brain of EAE mice, 10.2 mg/kg
[2] = mouse, brain of EAE mice, 25.5 mg/kg
[3] = mouse, brain of EAE mice, 51 mg/kg
[4] = mouse, brain of EAE mice, 70.1 mg/kg

## C#CCN[C@@H]1CCc2ccc(OC(=O)N(C)CC)cc21 [Ladostigil, R(+)-6-(N-methyl,N-ethyl-carbamoyloxy)-N′-propargyl-1-aminoindan]
MAO-B; 51 and 70.1 mg/kg/day, brain
  inhibition of MAO-B: 81-89%
MAO-B; brain of EAE mice, 10.2 mg/kg
  MAO-B activity dpm: 8784 +/− 1047 dpm
MAO-B; brain of EAE mice, 25.5 mg/kg
  MAO-B activity dpm: 4258 +/− 467 dpm
MAO-B; brain of EAE mice, 51 mg/kg
  MAO-B activity dpm: 2424 +/− 1122 dpm
MAO-B; brain of EAE mice, 70.1 mg/kg
  MAO-B activity dpm: 1382 +/− 250 dpm
MAO-B; [1]
  inhibition at 10.2 mg/kg: 32%
MAO-B; [2]
  inhibition at 25.5 mg/kg: 67%
MAO-B; [3]
  inhibition at 51 mg/kg: 81%
MAO-B; [4]
  inhibition at 70.1 mg/kg: 89%
MAO-A; 51 and 70.1 mg/kg/day, brain
  MAO-A inhibition: 55-60%
MAO-A; brain of EAE mice, 10.2 mg/kg
  MAO-A activity dpm: 3702 +/− 119 dpm
MAO-A; brain of EAE mice, 25.5 mg/kg
  MAO-A activity dpm: 2672 +/− 128 dpm
MAO-A; brain of EAE mice, 51 mg/kg
  MAO-A activity dpm: 1822 +/− 115 dpm
MAO-A; brain of EAE mice, 70.1 mg/kg
  MAO-A activity dpm: 1621 +/− 158 dpm
MAO-A; [1]
  inhibition at 10.2 mg/kg: 9%
MAO-A; [2]
  inhibition at 25.5 mg/kg: 34%
MAO-A; [3]
  inhibition at 51 mg/kg: 55%
MAO-A; [4]
  inhibition at 70.1 mg/kg: 60%
